Experimental data taken from patent US12060387B2, “Polypeptide-based shuttle agents for improving the transduction efficiency of polypeptide cargos to the cytosol of target eukaryotic cells, uses thereof, methods and kits relating to same” (priority 2015, dated 2024).
Where two headings read alike, the source gives them in different places. Where a SMILES comes first, the peptide text is derived from it. Bridges are numbered along the chain shown (N, C = ends). Roman numbers before positions name the chains, in order. Where no end group is shown, it is not given here.

Experiments:
[1] = Cell toxicity / % cell viability by flow cytometry (cells in total events v. untreated); assay type: cell-based, Human; conditions: human, HeLa cells; for viability at 1 min, 20 µM: FIG. 29I, shuttle 20 μM, 1 minute; for viability at 1 h, 3.5 µM: antibody 0.5 μM, shuttle 3.5 μM, read-out: Cell viability (%) (± St. Dev.; n = 3), FIG. 19B
Excerpt: (§1) The fluorescence of GFP was quantified using flow cytometry (Accuri C6, Becton, Dickinson and Company (BD)). Untreated cells were used to establish a baseline in order to quantify the increased fluorescence due to the internalization of the fluorescent protein in treated cells. The percentage of cells with a fluorescence signal above the maximum fluorescence of untreated cells, “mean %” or “Pos cells (%)”, is used to identify positive fluorescent cells. “Relative fluorescence intensity (FL1-A)” corresponds to the mean of all fluorescence intensities from each cell with a fluorescent signal after fluorescent protein delivery with the shuttle agent. Also, the events scanned by flow cytometry corresponding to cells (size and granularity) were analyzed. The cellular toxicity (% cell viability) was monitored comparing the percentage of cells in the total events scanned of treated cells comparatively to untreated cells.

[2] = as above; assay type: cell-based, human; conditions: human, THP-1 cells
Excerpt: as §1

HeLa cells = test: as above; assay type: cell-based, Human; conditions: HeLa; Protocol B; shuttle 50 μM; GFP-NLS 5 μM; 10 seconds
Excerpt: as §1

[3] = Cell viability (%) (±St. Dev.; n = 3), HeLa, Protocol B, GFP-NLS 5 μM, read-out: Cell viability (%) (±St. Dev.; n = 3)
[4] = Cell viability (%) (±St. Dev.; n = 3), FIG. 29A, HeLa, Protocol B, shuttle 50 μM, GFP-NLS 5 μM, 10 seconds, read-out: Cell viability (%) (±St. Dev.; n = 3), FIG. 29A
[5] = Cell viability (%) (±St. Dev.; n = 3), FIG. 29F, read-out: Cell viability (%) (±St. Dev.; n = 3), FIG. 29F

CC[C@H](C)[C@H](NC(=O)[C@H](CCCCN)NC(=O)[C@H](CCCCN)NC(=O)[C@H](Cc1ccccc1)NC(=O)[C@H](CC(C)C)NC(=O)[C@H](CCCCN)NC(=O)[C@H](Cc1c[nH]c2ccccc12)NC(=O)[C@H](CCCCN)NC(=O)[C@H](Cc1c[nH]cn1)NC(=O)[C@H](C)NC(=O)[C@H](Cc1c[nH]cn1)NC(=O)[C@H](Cc1c[nH]cn1)NC(=O)[C@H](C)NC(=O)[C@H](Cc1c[nH]cn1)NC(=O)[C@H](Cc1c[nH]cn1)NC(=O)[C@H](C)NC(=O)[C@@H](N)Cc1c[nH]cn1)C(=O)NCC(=O)N[C@@H](C)C(=O)N[C@H](C(=O)N[C@@H](CC(C)C)C(=O)N[C@@H](CCCCN)C(=O)N[C@H](C(=O)N[C@@H](CC(C)C)C(=O)N[C@H](C(=O)N[C@H](C(=O)NCC(=O)N[C@@H](Cc1ccc(O)cc1)C(=O)N[C@@H](C)C(=O)N[C@@H](CCCNC(=N)N)C(=O)N[C@@H](C)C(=O)N[C@@H](C)C(=O)N[C@@H](C)C(=O)N[C@@H](CCCNC(=N)N)C(=O)N[C@@H](CCC(N)=O)C(=O)N[C@@H](C)C(=O)N[C@@H](CCCNC(=N)N)C(=O)N[C@@H](C)C(=O)O)[C@@H](C)O)[C@@H](C)O)C(C)C)C(C)C [3HA-CM18-PTD4]
viability at 1 min, 20 µM [1, 3]: 43.6 ± 2.8%

CC(C)C[C@H](NC(=O)[C@H](CC(C)C)NC(=O)[C@H](CCCCN)NC(=O)[C@H](CCCCN)NC(=O)[C@H](CC(C)C)NC(=O)[C@H](CC(C)C)NC(=O)[C@H](CCCCN)NC(=O)[C@H](CCCCN)NC(=O)[C@H](CC(C)C)NC(=O)[C@H](CC(C)C)NC(=O)[C@@H](N)CS)C(=O)N[C@@H](CCCCN)C(=O)N[C@@H](CCCCN)C(=O)N[C@@H](CS)C(=O)O [C(LLKK)3C, reference compound] (H-CLLKKLLKKLLKKC-OH)
viability at 10 s, 50 µM [1]: 61.8 ± 0.1%

CC(C)C[C@H](NC(=O)[C@H](CC(C)C)NC(=O)[C@H](CCCCN)NC(=O)[C@H](CCCCN)NC(=O)[C@H](CC(C)C)NC(=O)[C@H](CC(C)C)NC(=O)[C@H](CCCCN)NC(=O)[C@H](CCCCN)NC(=O)[C@H](CC(C)C)NC(=O)[C@H](CC(C)C)NC(=O)[C@H](CS)NC(=O)[C@H](Cc1c[nH]cn1)NC(=O)[C@H](Cc1c[nH]cn1)NC(=O)[C@H](Cc1c[nH]cn1)NC(=O)[C@H](Cc1c[nH]cn1)NC(=O)[C@H](Cc1c[nH]cn1)NC(=O)[C@@H](N)Cc1c[nH]cn1)C(=O)N[C@@H](CCCCN)C(=O)N[C@@H](CCCCN)C(=O)N[C@@H](CS)C(=O)N[C@@H](Cc1ccc(O)cc1)C(=O)N[C@@H](C)C(=O)N[C@@H](CCCNC(=N)N)C(=O)N[C@@H](C)C(=O)N[C@@H](C)C(=O)N[C@@H](C)C(=O)N[C@@H](CCCNC(=N)N)C(=O)N[C@@H](CCC(N)=O)C(=O)N[C@@H](C)C(=O)N[C@@H](CCCNC(=N)N)C(=O)N[C@@H](C)C(=O)O [His-C(LLKK)3C-PTD4] (H-HHHHHHCLLKKLLKKLLKKCYARAAARQARA-OH)
viability at 15 s, 1 µM [2]: 85.2 ± 2.8% | viability at 0.5 min, 1 µM [2]: 86 ± 2% | viability at 1 min, 1 µM [2]: 86.9 ± 3.8% | viability at 2 min, 1 µM [2]: 79.6 ± 2.8% | viability at 24 h, 0.8 µM [2]: 97.2 ± 2.2% | viability at 72 h, 0.8 µM [2]: 76.6 ± 3.4% | viability at 10 s, 50 µM [1]: 95 ± 2.7% | viability at 1 min, 10 µM [1]: 99.5 ± 2.7% | viability at 2 min, 10 µM [1]: 94.3 ± 3.2% | viability at 5 min, 10 µM [1]: 80.8 ± 4.4%

N=C(N)NCCC[C@H](NC(=O)CNC(=O)[C@@H](N)Cc1ccc(O)cc1)C(=O)N[C@@H](CCCCN)C(=O)N[C@@H](CCCCN)C(=O)N[C@@H](CCCNC(=N)N)C(=O)N[C@@H](CCCNC(=N)N)C(=O)N[C@@H](CCC(N)=O)C(=O)N[C@@H](CCCNC(=N)N)C(=O)N[C@@H](CCCNC(=N)N)C(=O)N[C@@H](CCCNC(=N)N)C(=O)N[C@@H](CS)C(=O)O [TAT-Cys, reference compound]
viability at 10 s, 50 µM ([1]; HeLa, Protocol B, peptide 50 μM, GFP-NLS 5 μM, 10 seconds, read-out: Cell viability (%) (±St. Dev.; n = 3), FIG. 29D): 94.6 ± 0.44%

CC[C@H](C)[C@H](NC(=O)[C@@H](NC(=O)[C@H](Cc1ccccc1)NC(=O)[C@@H](N)CCCCN)[C@@H](C)O)C(=O)N[C@H](C(=O)N[C@@H](Cc1ccccc1)C(=O)N1CCC[C@H]1C(=O)N[C@@H](Cc1c[nH]cn1)C(=O)N[C@@H](CC(N)=O)C(=O)N[C@@H](CCC(N)=O)C(=O)N[C@@H](CCCCN)C(=O)NCC(=O)N[C@@H](CC(N)=O)C(=O)N[C@@H](Cc1c[nH]c2ccccc12)C(=O)N[C@@H](CCCCN)C(=O)N[C@@H](CC(N)=O)C(=O)N[C@H](C(=O)N1CCC[C@H]1C(=O)N[C@@H](CO)C(=O)N[C@@H](CC(N)=O)C(=O)N[C@@H](Cc1ccc(O)cc1)C(=O)N[C@@H](Cc1c[nH]cn1)C(=O)N[C@@H](Cc1ccc(O)cc1)C(=O)N[C@@H](CS)C(=O)N1CCC[C@H]1C(=O)N[C@@H](Cc1ccc(O)cc1)C(=O)N[C@@H](C)C(=O)N[C@@H](CCCNC(=N)N)C(=O)N[C@@H](C)C(=O)N[C@@H](C)C(=O)N[C@@H](C)C(=O)N[C@@H](CCCNC(=N)N)C(=O)N[C@@H](CCC(N)=O)C(=O)N[C@@H](C)C(=O)N[C@@H](CCCNC(=N)N)C(=O)N[C@@H](C)C(=O)O)C(C)C)C(C)C [VSVG-PTD4]
viability at 10 s, 50 µM ([1]; HeLa, Protocol B, shuttle 50 μM, GFP-NLS 5 μM, 10 seconds, read-out: Cell viability (%) (±St. Dev.; n = 3), FIG. 29E): 100%

GLFEALLELLESLWELLLEAYARAAARQARA [JST-PTD4]
viability at 10 s, 50 µM ([1]; Cell viability (%) (±St. Dev.; n = 3), FIG. 29E, read-out: Cell viability (%) (±St. Dev.; n = 3), FIG. 29E): 98.9 ± 0.57%

HHHAHHHKWKLFKKIGAVLKVLTTGYARAAARQARA [HA-CM18-PTD4]
viability at 1 min, 20 µM [1, 3]: 68.3 ± 4.1%

HHHHHHHHHHHHKWKLFKKIGAVLKVLTTGYARAAARQARA [12His-CM18-PTD4]
viability at 1 min, 20 µM [1, 3]: 33.4 ± 4.3%

HHHHHHKKALLALALHHLAHLALHLALALKKAYARAAARQARA [His-LAH4-PTD4]
viability at 10 s, 50 µM ([1]; HeLa, Protocol B, shuttle 50 μM, GFP-NLS 5 μM, 10 seconds, read-out: Cell viability (%) (±St. Dev.; n = 3), FIG. 29A): 98 ± 1.5%

HHHHHHKWKLFKKIGAVLKVLTTGGWTLNSAGYLLKINLKALAALAKKIL [His-CM18-Transportan (TPT)]
Cell viability (%) (±St. Dev.; n = 3), FIG. 29E (HeLa cells): 41.3 ± 3.29% | viability at 10 s, 50 µM [1, 4]: 41.3 ± 3.3%

HHHHHHKWKLFKKIGAVLKVLTTGRRRRRRRRR [His-CM18-9Arg]
Cell viability (%) (±St. Dev.; n = 3), FIG. 29E (HeLa cells): 45.8 ± 3.53% | viability at 10 s, 50 µM [1, 4]: 45.8 ± 5.4%

HHHHHHKWKLFKKIGAVLKVLTTGYARAAARQARAHHHHHH [His-CM18-PTD4-His]
viability at 1 min, 10 µM ([1]; Cell viability (%) (±St. Dev.; n = 3), FIG. 29G, HeLa, Protocol B, shuttle 10 μM, GFP-NLS 5 μM, incubation 1 min, read-out: Cell viability (%) (±St. Dev.; n = 3), FIG. 29G): 68.1 ± 2.7% | viability at 2 min, 10 µM ([1]; Cell viability (%) (±St. Dev.; n = 3), FIG. 29G, HeLa, Protocol B, shuttle 10 μM, GFP-NLS 5 μM, incubation 2 min, read-out: Cell viability (%) (±St. Dev.; n = 3), FIG. 29G): 61.6 ± 3.2% | viability at 5 min, 10 µM ([1]; Cell viability (%) (±St. Dev.; n = 3), FIG. 29G, HeLa, Protocol B, shuttle 10 μM, GFP-NLS 5 μM, incubation 5 min, read-out: Cell viability (%) (±St. Dev.; n = 3), FIG. 29G): 41.2 ± 4.4% | viability at 1 min, 20 µM [1, 3]: 78.6 ± 1.1%

HHHHHHYARAAARQARA [His-PTD4, reference compound]
viability at 10 s, 50 µM [1]: 96.5 ± 0.28%

HHHKWKLFKKIGAVLKVLTTGYARAAARQARA [3His-CM18-PTD4]
viability at 1 min, 20 µM [1, 3]: 39.2 ± 3.3%

I: KWKLFKKIGAVLKVLTTGRQIKIWFQNRRMKWKKC / II: KWKLFKKIGAVLKVLTTGRQIKIWFQNRRMKWKKC (disulfide I:35-II:35) [dCM18-Penetratin-Cys]
viability at 1 h, 3.5 µM ([1]; HeLa): 74 ± 9%

KWKLFKKIGAVLKVLTTG [CM18, reference compound]
viability at 10 s, 50 µM ([1]; Cell viability (%) (±St. Dev.; n = 3), FIG. 29D, HeLa, Protocol B, peptide 50 μM, GFP-NLS 5 μM, 10 seconds, read-out: Cell viability (%) (±St. Dev.; n = 3), FIG. 29D): 95 ± 1.2%

KWKLFKKIGAVLKVLTTGHHHHHHYARAAARQARA [CM18-His-PTD4]
viability at 1 min, 20 µM [1, 3]: 57.7 ± 4.2%

KWKLFKKIGAVLKVLTTGRQIKIWFQNRRMKWKKC [CM18-Penetratin-Cys]
viability at 1 h, 3.5 µM ([1]; HeLa): 73 ± 9.5%

LIRLWSHLIHIWFQNRRLKWKKKYARAAARQARA [EB1-PTD4]
viability at 10 s, 50 µM [1]: 39 ± 5.6% | viability at 1 min, 10 µM [1]: 61.7 ± 2.7% | viability at 2 min, 10 µM [1]: 56.6 ± 3.2% | viability at 5 min, 10 µM [1]: 55.8 ± 4.4%

MHHHHHHKWKLFKKIGAVLKVLTTGYGRKKRRQRRRC [Met-His-CM18-TAT-Cys]
viability at 10 s, 50 µM ([1]; Cell viability (%) (±St. Dev.; n = 3), FIG. 29E, HeLa, Protocol B, shuttle 50 μM, GFP-NLS 5 μM, 10 seconds, read-out: Cell viability (%) (±St. Dev.; n = 3), FIG. 29E): 41.4 ± 3.91%

RRLSYSRRRFWEAKLAKALAKALAKHLAKALAKALKACEA [SynB3-KALA]
viability at 10 s, 50 µM [1, 5]: 91.1 ± 0.82%

RRRRRRRRRWEAKLAKALAKALAKHLAKALAKALKACEA [9Arg-KALA]
viability at 10 s, 50 µM [1, 5]: 62.8 ± 5.11%

WEAKLAKALAKALAKHLAKALAKALKACEA [KALA, reference compound]
viability at 10 s, 50 µM [1]: 84 ± 0.7%

YARAAARQARA [PTD4, reference compound]
viability at 10 s, 50 µM ([1]; Cell viability (%) (±St. Dev.; n = 3), FIG. 29D, read-out: Cell viability (%) (±St. Dev.; n = 3), FIG. 29D): 94 ± 4.5%
